In patent US20020026053A1, “Novel 3-(substituted) -2- indolinones compounds and use thereof as inhibitors of protein kinase activity” (priority 1997, published 2002):

System: FLK-1 receptor
Experiment: FLK-1 Assay (cellular/catalytic ELISA, VEGF-stimulated phosphotyrosine)
Type: cell-based
Parameters: concentration or dose not given beside the values
Conditions: protocol P.110
In short: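 NIH3T3 C7#3 cells engineered to express Flk-1 were serum-starved overnight (0.1% FBS), then exposed to compound for 2 h at 37 °C (final dilution 1:200, 0.5% DMSO) before VEGF stimulation. Lysates captured on anti-FLK-1 antiserum plates; phosphotyrosine detected by UB40 antibody/POD-ABTS ELISA versus untreated controls.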

For O=C1Nc2ccc(S(=O)(=O)Nc3ccc(C(F)(F)F)cc3)cc2C1=Cc1cccc(Oc2cccc(C(F)(F)F)c2)c1 [10737/E11], the “Flk Kinase % Inhibition (P.110)” value was 18.3%.

For O=C1Nc2ccc(I)cc2C1=Cc1ccc(Oc2ccccc2)cc1 [10737/B09], the “Flk Kinase % Inhibition (P.110)” value was 17.5%.
